The values below come from patent publication US8765949B2, “CCR2 receptor antagonists and uses thereof” (Boehringer Ingelheim International GmbH, priority 2009, dated 2014).

In this assay the target is T1, CCR2 (Homo sapiens, UniProt P41597).
T1 construct: Membranes were prepared from THP-1 cells; endogenous in cells; host or cells: THP-1 (human acute monocytic leukaemia cells), membrane preparation
T1 sequence (P41597 1-360 isoform P41597-2): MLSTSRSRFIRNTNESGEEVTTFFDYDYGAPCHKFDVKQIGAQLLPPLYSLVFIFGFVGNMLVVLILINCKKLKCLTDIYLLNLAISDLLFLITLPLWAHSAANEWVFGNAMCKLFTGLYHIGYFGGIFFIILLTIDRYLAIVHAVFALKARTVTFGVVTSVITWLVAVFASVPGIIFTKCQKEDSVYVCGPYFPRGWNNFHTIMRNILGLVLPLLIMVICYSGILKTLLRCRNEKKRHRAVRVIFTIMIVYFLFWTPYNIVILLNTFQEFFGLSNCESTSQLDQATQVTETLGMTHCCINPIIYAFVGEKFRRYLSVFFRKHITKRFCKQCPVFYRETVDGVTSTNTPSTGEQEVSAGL
The assay is described as follows: CCR2 receptor membrane binding assay ([125I]MCP-1, THP-1 membranes, SPA beads). As to conditions: dissociation constant hKi; THP-1 cell membranes, [125I]MCP-1, bound radioactivity after 8 h. As for the experimental part: The above exemplary substances have been tested for binding to CCR2 using a binding assay as outlined herein below:
THP-1 cells (human acute monocytic leukaemia cells) were cultured under standardized conditions at 37° C. and 5% CO2 in a humidified incubator. THP-1 cells were cultivated in RPMI 1640 medium (Gibco 21875) containing 1% MEM-NEAA (Gibso 11140) 2 mM L-glutamine, 1.5 g/L sodium bicarbonate, 4.5 g/L glucose, 10 mM HEPES and 1.0 mM sodium pyruvate, 90%; 10% fetal calf serum (FCS Gibco 10500-064).
Membranes were prepared from THP-1 cells. THP-1 cells were centrifuged at 300×g at 4° C. for 10 min. The cell pellet was resuspendet in Phosphate Buffer Saline (PBS, including 10 μM Pefabloc and a protease inhibitor mix ‘complete’, Boehringer Mannheim (1 tablet/50 ml)), to a concentration of […]. The membrane preparation was performed by disrupting the cells by nitrogen […] (at 50 bar, for 1 h) in a “Nitrogen Bombe” (Parr Instrument). Cell debris was removed by centrifugation (800×g at 4° C., 1 min). The supernatant was centrifuged at 80000×g, 4° C. for 30 min to sediment the cell membranes. Usually 50 mg of protein (Bradford assay) were yielded from 1×10E9 cells. The membranes were resuspendet in 25 mM HEPES, 25 mM MgCl2, 1 mM CaCl2, 10% Glycerine for storage in aliquots at −80° C. in 25 mM HEPES, 25 mM MgCl2, 1 mM CaCl2, 10% Glycerine and stored at −80° C.
Receptor Membrane Binding Assay:
Perkin Elmer NEX 332 Jod 125 MCP-1, Stock: 2200 Ci/mmol solved in 2000 μl assay buffer, stored at −20° C. THP-1 membrane were adjusted with 25 mM HEPES, pH 7.2; 5 mM MgCl2; 0.5 mM CaCl2; 0.2% BSA assay buffer to a concentration of 2.5 μg/15 μl. Amersham Biosciences PVT-WGA Beads (RPNQ0001) were adjusted with assay buffer to a concentration of 0.24 mg/30 μl. For preparation of the membrane-bead-suspension membranes and beads were incubated for 30 min at RT under rotation (60 rpm) with a ratio of 1:2. Test compounds dissolved in 100% DMSO to a concentration of 10 mM and are further diluted with 100% DMSO to 1 mM. All additional compound dilutions were obtained with assay buffer, final 1% DMSO. Compounds, membrane-bead-suspension and [125I]MCP-1 (ca. 25000 cpm/10 μl) were incubated. Bound radioactivity was determined by scintillation counter after 8 h. Determination of affinity of test compounds (dissociation constant hKi) is calculated by iterative fitting of experimental data using the “easy sys” program, which is based on law of mass action (Schittkowski K. (1994), Numerische Mathematik, Vol. 68, 129-142).
The term Ki denotes a measure of affinity in units of concentration, obtained from inhibition or displacement. With `CO[C@H]1COCC[C@H]1NC1CCN(C(=O)c2ncnc(NC[C@@H]3CCC[C@H](c4ccc(C)cc4)O3)c2C)CC1` [Example 31], the Ki worked out at 276 nM. The same measure for `CO[C@H]1COCC[C@H]1NC1CCN(C(=O)c2ncnc(NC[C@@H]3CCC[C@H](c4cccc(C)c4)O3)c2C)CC1` [Example 32]: 333 nM; for `CO[C@@H]1COCC[C@@H]1NC1CCN(C(=O)c2ncnc(NC[C@@H]3CCC[C@H](c4cccc(C)c4)O3)c2C)CC1` [Example 33]: 148 nM; for `CO[C@H]1COCC[C@H]1NC1CCN(C(=O)c2nc(C)nc(NC[C@@H]3CCC[C@H](c4cccc(C)c4)O3)c2C)CC1` [Example 34]: 63 nM. The same measure for `CO[C@@H]1COCC[C@@H]1NC1CCN(C(=O)c2nc(C)nc(NC[C@@H]3CCC[C@H](c4cccc(C)c4)O3)c2C)CC1` [Example 35]: 96 nM; for `CO[C@H]1COCC[C@H]1NC1CCN(C(=O)c2ncnc(NC[C@@H]3CCC[C@H](c4ccc(C(F)(F)F)cc4)O3)c2C)CC1` [Example 36]: 51 nM; for `CO[C@@H]1COCC[C@@H]1NC1CCN(C(=O)c2ncnc(NC[C@@H]3CCC[C@H](c4ccc(C(F)(F)F)cc4)O3)c2C)CC1` [Example 37]: 25 nM.

For `CO[C@@H]1COCC[C@@H]1NC1CCN(C(=O)c2ncnc(NC[C@H]3CCC[C@@H](c4ccccc4)O3)c2C)CC1` [Example 38], the Ki is 6 nM. As for `CO[C@@H]1COCC[C@@H]1NC1CCN(C(=O)c2ncnc(NC[C@@H]3CCC[C@H](c4ccccc4)O3)c2C)CC1` [Example 39], the Ki was found to be 287 nM.

As to `CO[C@H]1COCC[C@H]1NC1CCN(C(=O)c2ncnc(NC[C@H]3CCC[C@@H](c4ccccc4)O3)c2C)CC1` [Example 40], the Ki stood at 26 nM. On to `CO[C@@H]1COCC[C@@H]1NC1CCN(C(=O)c2ncnc(NC[C@H]3CCC[C@@H](c4ccc(Cl)cc4)O3)c2C)CC1` [Example 41], for which the Ki was 3 nM. For `CO[C@H]1COCC[C@H]1NC1CCN(C(=O)c2ncnc(NC[C@H]3CCC[C@@H](c4ccc(Cl)cc4)O3)c2C)CC1` [Example 42] the value was 8 nM; for `CO[C@@H]1COCC[C@@H]1NC1CCN(C(=O)c2ncnc(NC[C@@H]3CCC[C@H](c4ccc(Cl)cc4)O3)c2C)CC1` [Example 43], 39 nM; for `CO[C@H]1COCC[C@H]1NC1CCN(C(=O)c2ncnc(NC[C@@H]3CCC[C@H](c4ccc(Cl)cc4)O3)c2C)CC1` [Example 44], 166 nM.

On to `CO[C@@H]1COCC[C@@H]1NC1CCN(C(=O)c2ncnc(NC[C@@H]3CCC[C@H](c4cccc(C(F)(F)F)c4)O3)c2C)CC1` [Example 45], for which the Ki came to 6 nM.

Regarding `CO[C@H]1COCC[C@H]1NC1CCN(C(=O)c2ncnc(NC[C@@H]3CCC[C@H](c4cccc(C(F)(F)F)c4)O3)c2C)CC1` [Example 46], the Ki came to 302 nM.

For the compound `CO[C@@H]1COCC[C@@H]1NC1CCN(C(=O)c2ncnc(NC[C@H]3CCC[C@@H](c4cccc(C(F)(F)F)c4)O3)c2C)CC1` [Example 47], the Ki turned out to be 94 nM. The same measure for `CO[C@H]1COCC[C@H]1NC1CCN(C(=O)c2ncnc(NC[C@H]3CCC[C@@H](c4cccc(C)c4)O3)c2C)CC1` [Example 48]: 7 nM; for `CO[C@@H]1COCC[C@@H]1NC1CCN(C(=O)c2ncnc(NC[C@H]3CCC[C@@H](c4cccc(C)c4)O3)c2C)CC1` [Example 49]: 4 nM; for `CO[C@H]1COCC[C@H]1NC1CCN(C(=O)c2nc(C)nc(NC[C@H]3CCC[C@@H](c4cccc(C)c4)O3)c2C)CC1` [Example 50]: 9 nM. For `CO[C@@H]1COCC[C@@H]1NC1CCN(C(=O)c2nc(C)nc(NC[C@H]3CCC[C@@H](c4cccc(C)c4)O3)c2C)CC1` [Example 51] the value was 8 nM; for `CO[C@@H]1COCC[C@@H]1NC1CCN(C(=O)c2ncnc(NC[C@H]3CCC[C@@H](c4ccc(C(F)(F)F)cc4)O3)c2C)CC1` [Example 52], 1 nM; for `CO[C@H]1COCC[C@H]1NC1CCN(C(=O)c2ncnc(NC[C@H]3CCC[C@@H](c4ccc(C(F)(F)F)cc4)O3)c2C)CC1` [Example 53], 2 nM. For `CO[C@@H]1COCC[C@@H]1NC1CCN(C(=O)c2ccnc(NC[C@H]3CCC[C@@H](c4ccc(C)cc4)O3)c2C)CC1` [Example 53a], the inhibitory constant (Ki) was 7 nM. For `COc1nc(NC[C@H]2CCC[C@@H](c3ccc(C)cc3)O2)c(C)c(C(=O)N2CCC(N[C@H]3CCOC[C@H]3OC)CC2)n1` [Example 53aa] the value was 2 nM; for `COc1nc(NC[C@H]2CCC[C@@H](c3ccc(C(F)(F)F)cc3)O2)c(C)c(C(=O)N2CCC(N[C@@H]3CCOC[C@@H]3OC)CC2)n1` [Example 53ab], 1 nM. For `COc1nc(NC[C@H]2CCC[C@@H](c3ccc(C(F)(F)F)cc3)O2)c(C)c(C(=O)N2CCC(N[C@H]3CCOC[C@H]3OC)CC2)n1` [Example 53ac] the value was 0.8 nM; for `COc1nc(NC[C@H]2CCC[C@@H](c3ccc(OC(F)(F)F)cc3)O2)c(C)c(C(=O)N2CCC(N[C@@H]3CCOC[C@@H]3OC)CC2)n1` [Example 53ad], 0.3 nM.

Regarding `COc1nc(NC[C@H]2CCC[C@@H](c3ccc(OC(F)(F)F)cc3)O2)c(C)c(C(=O)N2CCC(N[C@H]3CCOC[C@H]3OC)CC2)n1` [Example 53ae], the inhibition constant (Ki) worked out at 0.4 nM. For `COc1nc(NC[C@H]2CCC[C@@H](c3ccccc3)O2)c(C)c(C(=O)N2CCC(N[C@@H]3CCOC[C@@H]3OC)CC2)n1` [Example 53af] the value was 8 nM; for `COc1nc(NC[C@H]2CCC[C@@H](c3ccccc3)O2)c(C)c(C(=O)N2CCC(N[C@H]3CCOC[C@H]3OC)CC2)n1` [Example 53ag], 5 nM; for `CO[C@H]1COCC[C@H]1NC1CCN(C(=O)c2nc(C(F)(F)F)nc(NC[C@H]3CCC[C@@H](c4ccccc4)O3)c2C)CC1` [Example 53ah], 0.8 nM. Regarding `CO[C@@H]1COCC[C@@H]1NC1CCN(C(=O)c2nc(C(F)(F)F)nc(NC[C@H]3CCC[C@@H](c4ccccc4)O3)c2C)CC1` [Example 53ai], the Ki came to 1.1 nM.

In the case of `Cc1c(NC[C@H]2CCC[C@@H](c3ccc(OC(F)(F)F)cc3)O2)ncnc1C(=O)N1CCC(N[C@H]2CCOC[C@H]2F)CC1` [Example 53aj], the Ki was 0.7 nM. The same measure for `Cc1c(NC[C@H]2CCC[C@@H](c3ccc(OC(F)(F)F)cc3)O2)ncnc1C(=O)N1CCC(N[C@@H]2CCOC[C@@H]2F)CC1` [Example 53ak]: 0.8 nM. Consider `CO[C@H]1COCC[C@H]1NC1CCN(C(=O)c2ncnc(NC[C@H]3CCC[C@@H](c4ccc(SC(F)(F)F)cc4)O3)c2C)CC1` [Example 53al], for which the Ki was found to be 0.4 nM.

In the case of `CO[C@@H]1COCC[C@@H]1NC1CCN(C(=O)c2ncnc(NC[C@H]3CCC[C@@H](c4ccc(SC(F)(F)F)cc4)O3)c2C)CC1` [Example 53am], the Ki turned out to be 0.3 nM.

Take `CO[C@@H]1COCC[C@@H]1NC1CCN(C(=O)c2ncnc(NC[C@H]3CCC[C@@H](c4ccc(OC(F)(F)F)cc4)O3)c2C)CC1` [Example 53b]: the Ki came out at 20 nM. Regarding `CO[C@H]1COCC[C@H]1NC1CCN(C(=O)c2ncnc(NC[C@@H]3CCC[C@H](c4ccc(OC(F)(F)F)cc4)O3)c2C)CC1` [Example 53c], the inhibitory constant (Ki) was determined as 98 nM. For `CO[C@@H]1COCC[C@@H]1NC1CCN(C(=O)c2ncnc(NC[C@@H]3CCC[C@H](c4ccc(OC(F)(F)F)cc4)O3)c2C)CC1` [Example 53d] the value was 19 nM; for `CO[C@H]1COCC[C@H]1NC1CCN(C(=O)c2ccnc(NC[C@H]3CCC[C@@H](c4ccc(C)cc4)O3)c2C)CC1` [Example 53e], 16 nM. For `CO[C@H]1COCC[C@H]1NC1CCN(C(=O)c2ncnc(NC[C@H]3CCC[C@@H](c4ccc(OC(F)(F)F)cc4)O3)c2C)CC1` [Example 53f] the value was 12 nM.
